Results: patent publication US20110253633A1, “CATANIONIC VESICLES, PROCESS FOR PREPARING SAME AND APPLICATIONS THEREOF” (COMMISSARIAT A L'ENERGIE ATOMIQUE ET AUX ENERGIES ALT., priority 2008, published 2011)
Where two headings read alike, the source gives them in different places.

Legend:
[1] = Permeability to anions and degree of encapsulation (dialysis, fluorescence at 522 nm); type: physicochemical; conditions: of the initial Oregon Green
Method: Stir at 50° C. for 72 hours.
The solution is made up to 3 mL by adding a solution of CTACl at 1.5 mM in a borate buffer solution at pH=9. The fluorescence emission at 522 nm with excitation at 502 nm is measured with a Varian Cary Eclipse fluorescence spectrometer for all the solutions prepared from each of the samples taken. The concentration of Oregon Green in each sample is proportional to the fluorescence emission to within an arbitrary factor that is not important for the measurement.
(FIG. 11). […] The ratio of the fluorescence measured from the initial solution to the fluorescence extrapolated to t=0 makes it possible to measure the degree of encapsulation. 60% of the initial Oregon Green is therefore encapsulated.

[2] = Confocal microscopy of solutes with high internal pH vesicles; type: physicochemical; conditions: Example 11 vesicles, waiting time of one minute
Method: The presence of vesicles in the solution is checked by confocal microscopy after adding Rhodamine 6G: take about 100 μL of solution, and add 10 μL of an aqueous solution of Rhodamine 6G at 10 μM. Observation by confocal microscopy is carried out according to the usual techniques.
The presence of vesicles in the solution is checked by confocal microscopy by adding Rhodamine 6G as described above.

[3] = Confocal microscopy of solutes with low internal pH vesicles; type: physicochemical; conditions: for localisation of solute encapsulated during preparation: confocal microscopy after 7 days of dialysis; for waiting time before the vesicles absorb the solute spontaneously: vesicles prepared without addition of solute
Method: Optionally, solute to be encapsulated can be added. If the vesicles were prepared without addition of solute in the preceding stages, they are then able to absorb certain compounds present in solution, for example Rhodamine B or Rhodamine 6G. It is sufficient to add the solute and wait about ten minutes before the vesicles absorb the solute spontaneously.
The presence of vesicles in the solution is checked by confocal microscopy after labelling with Oregon Green 488: take about 100 mg of solution, and add 20 μL of a saturated aqueous solution of Oregon Green 488, diluted 10-fold. Observation by confocal microscopy is carried out according to the usual techniques. An image of the vesicles is obtained, with the positive walls marked with the negative stain (FIG. 2). The vesicles are well separated.
The presence of vesicles in the solution and encapsulation of Rhodamine 6G is checked by confocal microscopy according to the usual techniques. […] The same observation can be carried out after labelling with Oregon Green 488: to 20 μL of solution, add 10 μL of a saturated aqueous solution of Oregon Green 488, diluted 10-fold.
After 7 days of dialysis, withdraw the solution from the cassette using a syringe and store it at room temperature.
After 20 minutes, zones with high concentration of Rhodamine 6G are observed by confocal microscopy (FIG. 14).

| Compound | degree of encapsulation [1] [%] | spontaneous encapsulation of solute added after dialysis [2] | penetration of stain added after dialysis ([3]; Example 2 vesicles, excess of negative stain) | concentration in the vesicles extrapolated to t=0 (initial concentration in the solution 1.5 mM) [µM] | permeability of the vesicles to Rhodamine 6G (not told) | degree of encapsulation (of the initial Rhodamine 6G) [%] | spontaneous encapsulation of solute added after dialysis ([3]; Example 12 vesicles, after 20 minutes) | localisation of solute encapsulated during preparation [3] | waiting time before the vesicles absorb the solute spontaneously [3] |
| --- | --- | --- | --- | --- | --- | --- | --- | --- | --- |
| O=C(O)c1ccccc1-c1c2cc(F)c(=O)cc-2oc2cc(O)c(F)cc12 [Oregon Green] | 60 | spontaneous encapsulation | does not penetrate into the vesicles |  |  |  |  |  |  |
| CC/N=c1\cc2oc3cc(NCC)c(C)cc3c(-c3ccccc3C(=O)OCC)c-2cc1C.Cl [Rhodamine 6G, Chloride of Rhodamine 6G] |  |  |  | 500 | 8.1 10^−12 cm/s | 30 | accumulated preferentially | present inside the vesicles, and exclusively inside | about ten |
| CCN(CC)c1ccc2c(-c3ccccc3C(=O)O)c3ccc(=[N+](CC)CC)cc-3oc2c1.[Cl-] [Rhodamine B, Chloride of Rhodamine B] |  |  |  |  |  |  |  | exclusively encapsulated inside the vesicles, not outside | about ten |
